Measured values as given in patent US20050209157A1, “Short bioactive peptides and methods for their use” (priority 2001, published 2005).
Where two headings read alike, the source gives them in different places. No end group written: not given here.

How the values were obtained:
[1] = tested on: Pseudomonas aeruginosa ATCC 9027; experiment: Antimicrobial assay I, MIC by OD measurement; type: cell-based; settings: 37° C. for 24 hours, absorbance 620 nm
[2] = tested on: Staphylococcus aureus ATCC 6538; experiment: Antimicrobial assay I, MIC by OD measurement; type: cell-based; settings: 37° C. for 24 hours, absorbance 620 nm
[3] = tested on: yeast (Saccharomyces cerevisiae); experiment: Antimicrobial assay I, yeast assay in RPMI 1640; type: cell-based; settings: RPMI 1640 media
S. aureus (MRSA) = type: cell-based, Staphylococcus aureus; settings: mean of three; 16 to 20 hours at 35° C.
S. epidermidis C621 = type: cell-based, Staphylococcus epidermidis; settings: mean of three; 16 to 20 hours at 35° C.
S. pyogenes M76 = experiment: Antimicrobial assays II, NCCLS broth microdilution MIC; type: cell-based, Streptococcus pyogenes; settings: mean of three; 16 to 20 hours at 35° C.
S. pyogenes ATCC19615 = experiment: as above; type: cell-based, Streptococcus pyogenes; settings: mean of three, in µg/mL
S. pneumoniae C718 = experiment: as above; type: cell-based, Streptococcus pneumoniae; settings: mean of three
S. pneumoniae C719 = experiment: as above; type: cell-based, Streptococcus pneumoniae; settings: mean of three, in µg/mL
P. acne ATCC 6919 = experiment: as above; type: cell-based, Propionibacterium acnes; settings: mean of three, in µg/mL
BMKC = experiment: Anti-cancer assay, MTT, LD50; type: cell-based; settings: BMKC cloned melanoma line, 24 hours with peptide
Text: (§1) Numbers are LD50 values (μg/mL).

H1299 = experiment: Anti-cancer assay, MTT, LD50; type: cell-based; settings: 24 hours with peptide, lung large cell carcinoma
Text: as §1

HeLaS3 = experiment: Anti-cancer assay, MTT, LD50; type: cell-based; settings: 24 hours with peptide, cervical carcinoma
Text: as §1

MCF7 = experiment: Anti-cancer assay, MTT, LD50; type: cell-based; settings: MCF7 breast adenocarcinoma line, MTT, 24 hours with peptide
Text: as §1

PC3 = experiment: Anti-cancer assay, MTT, LD50; type: cell-based; settings: 24 hours with peptide, prostate adenocarcinoma
Text: as §1

SW480 = experiment: Anti-cancer assay, MTT, LD50; type: cell-based; settings: SW480 colon adenocarcinoma line, 24 hours with peptide
Text: as §1

in vitro [4] = type: cell-based, human; settings: human, human red blood cells, pH 7, hemolytic assay, concentration at 50% hemolysis, 1 hour at 37° C.; read-out: LD50
P. aeruginosa H374 = type: cell-based, Pseudomonas aeruginosa; settings: for MIC Cm-comb.: MIC of chloramphenicol with peptide at ¼ MIC; for MIC Nal-comb.: MIC of nalidixic acid with peptide at ¼ MIC; for FIC Index: 0.5 or less = synergy
In short: (§2)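 FIC index, computed as 0.25 plus the ratio of combination to single-agent antibiotic MIC, defines synergy when 0.5 or below. Peptide fixed at one quarter MIC while chloramphenicol or nalidixic acid was serially diluted two-fold; antibiotic-alone MICs served as baselines.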

P. aeruginosa H774 = type: cell-based, Pseudomonas aeruginosa; settings: P. aeruginosa H744; nalidixic acid + peptide at ¼ MIC; 0.5 or less = synergy
In short: as §2

P. aeruginosa = type: cell-based, Pseudomonas aeruginosa; settings: P. aeruginosa H744; MIC of nalidixic acid with peptide at ¼ MIC
In short: as §2

WI38 = settings: MTT, 24 hours with peptide; normal fibroblast line
in vitro [5] = settings: human, WI38 normal lung fibroblast cells, LD50 WI38, WI38 normal lung fibroblast line, MTT, 24 hours with peptide
[6] = chloramphenicol + peptide at ¼ MIC
[7] = nalidixic acid + peptide at ¼ MIC, FIC=0.25+MIC comb/MIC alone

FAKLLAKLAKKLL-NH2 [P43]
paerug9027 (MIC) [1]: 100 µg/mL | staph6538 (MIC) [2]: 5 µg/mL | yeast (MIC or MFC) [3]: 25 µg/mL | S. aureus (MRSA) MIC (S. aureus (MRSA)): 4 µg/mL | S. epidermidis C621 MIC (S. epidermidis C621): 2 µg/mL | S. pyogenes M76 MIC (S. pyogenes M76): 2 µg/mL | S. pyogenes MIC (S. pyogenes ATCC19615): 2 | S. pneumoniae MIC (S. pneumoniae C718): 8 µg/mL | S. pneumoniae MIC (S. pneumoniae C719): 4 | P. acne MIC (P. acne ATCC 6919): 2 | LD50 BMKC (BMKC): 7 µg/mL | H1299 LD50 (H1299): 6 µg/mL | HeLaS3 LD50 (HeLaS3): 15 µg/mL | LD50 MCF7 (MCF7): 9 µg/mL | PC3 LD50 (PC3): 12 µg/mL | LD50 SW480 (SW480): 9 µg/mL | HC50 at 1 h (in vitro [4]): 20 µg/mL | MIC Cm-comb. (P. aeruginosa H374): 16 µg/mL | MIC Nal-comb. (P. aeruginosa H374): 5000 µg/mL | FIC Index (P. aeruginosa H374; [6]): 1.25 | FIC Index (P. aeruginosa H374; [7]): 1.25 | FIC Index (P. aeruginosa H774): 1.25 | MIC Nal-comb. (P. aeruginosa): 624 µg/mL | WI38 LD50 (WI38): 5 µg/mL | CC50 at 24 h (in vitro [5]): 5 µg/mL

FAKFLAKFLKKAL-NH2 [P111, FAKFLAKFLKKAL-NH2]
paerug9027 (MIC) [1]: 100 µg/mL | staph6538 (MIC) [2]: 5 µg/mL | yeast (MIC or MFC) [3]: 200 µg/mL | S. aureus (MRSA) MIC (S. aureus (MRSA)): 8 µg/mL | S. epidermidis C621 MIC (S. epidermidis C621): 4 µg/mL | S. pyogenes M76 MIC (S. pyogenes M76): 4 µg/mL | S. pyogenes MIC (S. pyogenes ATCC19615): 2 | S. pneumoniae MIC (S. pneumoniae C718): 16 µg/mL | S. pneumoniae MIC (S. pneumoniae C719): 4 | P. acne MIC (P. acne ATCC 6919): 4 | LD50 BMKC (BMKC): 26 µg/mL | H1299 LD50 (H1299): 8 µg/mL | HeLaS3 LD50 (HeLaS3): 7 µg/mL | LD50 MCF7 (MCF7): 35 µg/mL | PC3 LD50 (PC3): 11 µg/mL | LD50 SW480 (SW480): 27 µg/mL | HC50 at 1 h (in vitro [4]): 60 µg/mL | MIC Cm-comb. (P. aeruginosa H374): 16 µg/mL | MIC Nal-comb. (P. aeruginosa H374): 2500 µg/mL | FIC Index (P. aeruginosa H374; [6]): 1.25 | FIC Index (P. aeruginosa H374; [7]): 0.75 | FIC Index (P. aeruginosa H774): 1.25 | MIC Nal-comb. (P. aeruginosa): 624 µg/mL | WI38 LD50 (WI38): 24 µg/mL | CC50 at 24 h (in vitro [5]): 24 µg/mL

FAKKLAKLALKLAKL-NH2 [P44]
paerug9027 (MIC) [1]: 5 µg/mL | staph6538 (MIC) [2]: 5 µg/mL | yeast (MIC or MFC) [3]: 50 µg/mL | S. aureus (MRSA) MIC (S. aureus (MRSA)): 8 µg/mL | S. epidermidis C621 MIC (S. epidermidis C621): 4 µg/mL | S. pyogenes M76 MIC (S. pyogenes M76): 4 µg/mL | S. pyogenes MIC (S. pyogenes ATCC19615): 4 | S. pneumoniae MIC (S. pneumoniae C718): 8 µg/mL | S. pneumoniae MIC (S. pneumoniae C719): 16 | P. acne MIC (P. acne ATCC 6919): 4 | LD50 BMKC (BMKC): 47 µg/mL | H1299 LD50 (H1299): 72 µg/mL | HeLaS3 LD50 (HeLaS3): 22 µg/mL | LD50 MCF7 (MCF7): 140 µg/mL | PC3 LD50 (PC3): 45 µg/mL | LD50 SW480 (SW480): 32 µg/mL | HC50 at 1 h (in vitro [4]): 90 µg/mL | MIC Cm-comb. (P. aeruginosa H374): 16 µg/mL | MIC Nal-comb. (P. aeruginosa H374): 5000 µg/mL | FIC Index (P. aeruginosa H374; [6]): 1.25 | FIC Index (P. aeruginosa H374; [7]): 1.25 | FIC Index (P. aeruginosa H774): 1.25 | MIC Nal-comb. (P. aeruginosa): 624 µg/mL | WI38 LD50 (WI38): 36 µg/mL | CC50 at 24 h (in vitro [5]): 36 µg/mL

FALALKKALKALKKAL-NH2 [P34]
paerug9027 (MIC) [1]: 50 µg/mL | staph6538 (MIC) [2]: 5 µg/mL | yeast (MIC or MFC) [3]: 25 µg/mL | S. aureus (MRSA) MIC (S. aureus (MRSA)): 16 µg/mL | S. epidermidis C621 MIC (S. epidermidis C621): 8 µg/mL | S. pyogenes M76 MIC (S. pyogenes M76): 4 µg/mL | S. pyogenes MIC (S. pyogenes ATCC19615): 4 | S. pneumoniae MIC (S. pneumoniae C718): 8 µg/mL | S. pneumoniae MIC (S. pneumoniae C719): 8 | P. acne MIC (P. acne ATCC 6919): 8 | LD50 BMKC (BMKC): 53 µg/mL | H1299 LD50 (H1299): 24 µg/mL | HeLaS3 LD50 (HeLaS3): 62 µg/mL | LD50 MCF7 (MCF7): 21 µg/mL | PC3 LD50 (PC3): 9 µg/mL | LD50 SW480 (SW480): 35 µg/mL | HC50 at 1 h (in vitro [4]): 200 µg/mL | MIC Cm-comb. (P. aeruginosa H374): 16 µg/mL | MIC Nal-comb. (P. aeruginosa H374): 2500 µg/mL | FIC Index (P. aeruginosa H374; [6]): 1.25 | FIC Index (P. aeruginosa H374; [7]): 0.75 | FIC Index (P. aeruginosa H774): 1.25 | MIC Nal-comb. (P. aeruginosa): 624 µg/mL | WI38 LD50 (WI38): 40 µg/mL | CC50 at 24 h (in vitro [5]): 40 µg/mL
